This is an account of results in patent publication US9688596B2, “Synthesis and biological activity of 2-methylene analogs of calcitriol and related compounds” (Wisconsin Alumni Research Foundation, priority 2015, dated 2017).

Entries after “also recorded” stand apart in the source; their conditions may differ.

For one series, the system named is bone formation. To be noted: cited from earlier work.
In series [1] the target is T1, full-length recombinant rat vitamin D receptor (Rattus norvegicus, UniProt P13053).
T1 sequence (P13053 1-423): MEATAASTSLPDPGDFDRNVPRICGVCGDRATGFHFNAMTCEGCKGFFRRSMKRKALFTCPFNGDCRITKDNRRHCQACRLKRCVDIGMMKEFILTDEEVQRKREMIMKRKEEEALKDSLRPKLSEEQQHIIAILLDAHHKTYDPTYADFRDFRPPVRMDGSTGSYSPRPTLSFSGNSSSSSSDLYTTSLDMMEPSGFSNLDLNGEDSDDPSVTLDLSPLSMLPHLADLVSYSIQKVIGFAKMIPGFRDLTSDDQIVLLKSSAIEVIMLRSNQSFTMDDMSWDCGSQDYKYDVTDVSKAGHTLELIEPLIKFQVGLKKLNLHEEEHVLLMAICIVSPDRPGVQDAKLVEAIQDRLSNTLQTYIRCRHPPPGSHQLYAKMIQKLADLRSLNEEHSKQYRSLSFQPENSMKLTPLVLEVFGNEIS
Put plainly: Competitive binding to the vitamin D receptor. The note with it: for VDR Binding Ki Ratio: average ratio of the 1α,25-(OH)2D3 Ki to the Ki for the analogue, radiolabeled 1α,25-(OH)2D3 at 1 nM, Kd 0.2 nM; for VDR binding ability (in words): comparator (1 or 3).
Experimental: In the first competitive binding assay, the affinity of vitamins to the full-length recombinant rat receptor was evaluated and compared to 1α,25-(OH)2D3 (1) and 2MD (3).
The Ki values are derived from the dose-response curves and represent the inhibition constant when radiolabeled 1α,25-(OH)2D3 is present at 1 nM and a Kd of 0.2 nM is used. The numbers shown in the Table are expressed as the average ratio of the 1α,25-(OH)2D3 Ki to the Ki for the analogue. ^bInduction of differentiation of HL-60 promyelocytes to monocytes by 1α,25-(OH)2D3 (1) and the synthesized vitamin D analogues. Differentiation state was determined by measuring the percentage of cells reducing nitro blue tetrazolium (NBT). The experiment was repeated in duplicate two times. […] The numbers shown in the Table are expressed as the average ratio of the 1α,25-(OH)2D3 ED50 to the ED50 for the analogue. ^cTranscriptional assay in rat osteosarcoma cells stably transfected with a 24-hydroxylase gene reporter plasmid. […] The numbers shown in the Table are expressed as the average ratio of the 1α,25-(OH)2D3 ED50 to the ED50 for the analogue.

Series [2] relates to human promyelocytic HL-60 cells. The series can be described thus: HL-60 differentiation (NBT reduction). Type of series: cell-based. To be noted: for HL-60 differentiation ED50 Ratio: average ratio of the 1α,25-(OH)2D3 ED50 to the ED50 for the analogue, 50% maturation, NBT reduction; for ability to elicit differentiation of HL-60 cells into monocytes (in words): comparator (2MD).

For series [3] the following is noted: ovariectomized (OVX) rat; cited from earlier work.
For series [4] the following is noted: cited from earlier work.
Series [5] relates to 24-hydroxylase (CYP-24) promoter. Put plainly: 24-hydroxylase transcription (luciferase reporter in rat osteosarcoma cells). The class given is cell-based. To be noted: for 24OHase transcription ED50 Ratio: average ratio of the 1α,25-(OH)2D3 ED50 to the ED50 for the analogue, luciferase activity; for transcriptional potency (in words): compared with 1α,25-(OH)2D3 (1). The text has this:
The activity of the synthesized vitamins in inducing transcription of vitamin D target gene was examined using the 24-hydroxylase (CYP-24) promoter.
For orientation: A reporter such as luciferase makes a cellular process visible.

For series [6] the following is noted: compared with 1; cited from earlier work.
The conditions of series [7]: clinical trial; cited from earlier work.
Series [8] in a line: Bone calcium mobilization (serum calcium). The class given is in vivo, rat. To be noted: rats, four consecutive intraperitoneal doses. As to the method: (§1) Male, weanling Sprague-Dawley rats were purchased from Harlan (Indianapolis, Ind.). The animals were group housed and placed on Diet 11 (0.47% Ca)+AEK oil for one week followed by Diet 11 (0.02% Ca)+AEK oil for 3 weeks. The rats were then switched to a diet containing 0.47% Ca^xxiii for one week followed by two weeks on a diet containing 0.02% Ca. Dose administration began during the last week on 0.02% Ca diet. Four consecutive intraperitoneal doses were given approximately 24 hours apart. Twenty four hours after the last dose, blood was collected from the severed neck and the concentration of serum calcium determined as a measure of bone calcium mobilization. The first 10 cm of the intestine was also collected for the intestinal calcium transport analysis using the everted gut sac method.^25

For series [9] the following is noted: earlier work; cited from earlier work.
A short description of series [10]: Intestinal calcium transport (everted gut sac). The note with it: rats, four consecutive intraperitoneal doses. The class given is in vivo, rat. As to the method:
as §1

[11] abbreviates: listed as 2-methylene calcitriol.

Turning to `C=C1[C@H](O)CC(=C/C=C2\CCC[C@]3(C)[C@@H](C(C)CCCC(C)(C)O)CC[C@@H]23)C[C@H]1O` (stereo partly drawn) [Compound 3, (20S)-1α,25-dihydroxy-2-methylene-19-nor vitamin D3], in the series with bone formation, the “bone formation in vitro” value is on record as “strongly stimulate bone formation”. Further, the “VDR Binding Ki Ratio” value in series [1] was 1. Besides, the “HL-60 differentiation ED50 Ratio” value in series [2] was 25. The “bone formation in OVX rat model” value in [3] is given as “strongly stimulate bone formation”. Moreover, the “activity in the intestine compared with 1” value in [4] was “similar”. Also, in series [5], the “24OHase transcription ED50 Ratio” value is listed as 29. Also, in series [6], the “activity in the bone tissue higher than 1” value is “ca. 30 times”. In addition, the “bone turnover in postmenopausal women” value in [7] was “increase bone turnover”.

As to `C=C1/C(=C/C=C2\CCC[C@]3(C)[C@@H]([C@@H](C)CCCC(C)(C)O)CC[C@@H]23)C[C@@H](O)C(=C)[C@@H]1O` [Compound 13, (5E,20S)-1α,25-dihydroxy-2-methylene-vitamin D3], in series [1], the “VDR Binding Ki Ratio” value was 1.1 and the “VDR binding ability (in words)” value is on record as “almost identical”. In addition, in series [2], the “HL-60 differentiation ED50 Ratio” value is listed as 20 and the “ability to elicit differentiation of HL-60 cells into monocytes (in words)” value is recorded as “highest ability to elicit cellular differentiation; also recorded: almost identical”. Moreover, the “bone calcium mobilization / potency in raising serum calcium (in words)” value (“bone calcium mobilization / potency” below) in series [8] is “significantly decreased activity in bone”. In series [5], the “24OHase transcription ED50 Ratio” value came to 5 and the “transcriptional potency (in words)” value was “most pronounced activity”.

In the case of `C=C1/C(=C\C=C2/CCC[C@]3(C)[C@@H]([C@@H](C)CCCC(C)C)CC[C@@H]23)C[C@@H](O)C(=C)[C@@H]1O` [Compound 11, (20S)-1α-hydroxy-2-methylene-vitamin D3], the “VDR binding ability (in words)” value in [1] is “decreased by two orders of magnitude”. Moreover, in [2], the “HL-60 differentiation ED50 Ratio” value was determined as 0.7. Further, in series [8], the “bone calcium mobilization / potency” value is listed as “less active but still more calcemic than calcitriol; also recorded: Strong calcemic activity”. The “transcriptional potency (in words)” value in series [5] is listed as “decreased by one order of magnitude”.

For `C=C1[C@H](O)CC(=C/C=C2\CCC[C@]3(C)[C@@H]([C@H](C)CCCC(C)(C)O)CC[C@@H]23)C[C@H]1O` [Compound 2, reference compound], the “VDR Binding Ki Ratio” value in series [1] was determined as 1. Further, the “calcemic potency / in vivo calcemic activity” value in series [9] is recorded as “significantly increased calcemic potency”. Also, in [2], the “HL-60 differentiation ED50 Ratio” value is listed as 1. Moreover, in series [5], the “24OHase transcription ED50 Ratio” value came to 1.

In the case of `C=C1/C(=C/C=C2\CCC[C@]3(C)[C@@H]([C@H](C)CCCC(C)(C)O)CC[C@@H]23)C[C@@H](O)C(=C)[C@@H]1O` [Compound 12, (5E)-1α,25-dihydroxy-2-methylene-vitamin D3], the “VDR Binding Ki Ratio” value in [1] is reported as 2.5. The “affinity to the receptor, higher than natural hormone 1” value in series [1] (compared to 1α,25-(OH)2D3 (1)) worked out at 2.5 fold. Besides, the “HL-60 differentiation ED50 Ratio” value in [2] was found to be 0.4. Moreover, the “bone calcium mobilization / potency” value in [8] is “significantly decreased activity in bone”. Further, in series [5], the “24OHase transcription ED50 Ratio” value was 1 and the “transcriptional potency (in words)” value is on record as “same transcriptional potency as 1α,25-(OH)2D3 (1)”.

For `C=C1/C(=C\C=C2/CCC[C@]3(C)[C@@H]([C@@H](C)CCCC(C)(C)O)CC[C@@H]23)C[C@@H](O)C(=C)[C@@H]1O` [Compound 9, (20S)-1α,25-dihydroxy-2-methylene-vitamin D3], in [1], the “VDR Binding Ki Ratio” value came out at 1.1 and the “VDR binding ability (in words)” value is “almost identical”. Also, in series [2], the “HL-60 differentiation ED50 Ratio” value is 29 and the “ability to elicit differentiation of HL-60 cells into monocytes (in words)” value is listed as “highest ability to elicit cellular differentiation; also recorded: almost identical”. Also, the “bone calcium mobilization / potency” value in series [8] is on record as “highest potency in raising serum calcium; also recorded: slightly lower than that of 3; also recorded: ca. one order of magnitude higher compared to calcitriol”. In series [5], the “24OHase transcription ED50 Ratio” value amounted to 10 and the “transcriptional potency (in words)” value is listed as “most pronounced activity”. Also, the “transcriptional activity decreased compared with 3 (2MD)” value in series [5] (compared with 3) is on record as “three”. The “intestinal calcium transport activity (in words)” value in series [10] is “Much higher potency on intestine; also recorded: more potent than 1 and 3”.

Take `C=C1/C(=C\C=C2/CCC[C@]3(C)[C@@H]([C@H](C)CCCC(C)C)CC[C@@H]23)C[C@@H](O)C(=C)[C@@H]1O` [Compound 10, 1α-hydroxy-2-methylene-vitamin D3]: in series [1], the “VDR binding ability (in words)” value was “decreased by two orders of magnitude”. Also, the “HL-60 differentiation ED50 Ratio” value in series [2] is on record as 0.07. In addition, the “bone calcium mobilization / potency” value in series [8] is “less active but still more calcemic than calcitriol; also recorded: Strong calcemic activity”. The “transcriptional potency (in words)” value in series [5] is given as “decreased by one order of magnitude”.

On to `C=C1/C(=C\C=C2/CCC[C@]3(C)[C@@H]([C@H](C)CCCC(C)(C)O)CC[C@@H]23)C[C@@H](O)C(=C)[C@@H]1O` [Compound 8, 1α,25-dihydroxy-2-methylene-vitamin D3], for which, in [1], the “VDR Binding Ki Ratio” value worked out at 1.4 and the “VDR binding ability (in words)” value is reported as “almost as effectively as the natural hormone 1”. The “HL-60 differentiation ED50 Ratio” value in series [2] was 0.7. In addition, the “bone calcium mobilization / potency” value in series [8] is “highest potency in raising serum calcium; also recorded: considerably higher potency”. Also, the “bone calcium mobilization / potency” value in series [8] (setting [11]) is “almost as active as 2MD in the bone”. Also, in [5], the “24OHase transcription ED50 Ratio” value amounted to 1 and the “transcriptional potency (in words)” value is “same transcriptional potency as 1α,25-(OH)2D3 (1)”. Also, the “intestinal calcium transport activity (in words)” value in series [10] is “Much higher potency on intestine; also recorded: considerably higher potency; also recorded: more potent than 1 and 3”. Also, the “intestinal calcium transport activity (in words)” value in series [10] (setting [11]) is “more active in intestine”.
